Source: publication PMC9000864, “Pentacyclic Triterpenoids from Sabia discolor Dunn and Their α-Glycosidase Inhibitory Activities” (Molecules, 2022)

Each compound was assayed against α-glucosidase (assay: α-glucosidase inhibition assay (PNPG method)). Details: absorbance at 405 nm, 37 °C, n = 3, read-out: α-glucosidase inhibitory activity IC50.
Assay type: biochemical, saccharomyces cerevisiae
Excerpt: Altogether, dimethyl sulfoxide (DMSO; Beijing Mr. Lai Treasure Company, Beijing, China); phosphate buffer solution (PBS; HyClone); centrifuge tubes, 96 cell culture plates, and other consumables (NEST Biotechnology Co. Ltd., Beijing, China); and α-glucosidase (Sigma Company, St. Louis, MO, USA) from saccharomyces cerevisiae were obtained for this study. […] The absorbance was read using a microplate reader (Varioskan LUX, Thermo, Waltham, MA, USA) at 405 nm. The results were obtained for at least three independent experiments. The inhibitory activity of α-glucosidase was determined by the PNPG method. […] Then, 20 μL of PNPG (2.5 mmol/L) was added, mixed by shock, and incubated in a 37 °C constant-temperature incubator for 15 min. Then, 80 μL of Na2CO3 […] solution was added to stop the reaction and the absorbance was measured by a microplate reader at 405 nm. […] Inhibition rate = [(OD negative − OD blank) − (OD sample − OD background)]/(OD negative − OD blank) × 100%.
Compound CC1=CCC2(C)CCC3(C)C(CCC4C5(C)CCC(O)C(C)(C)C5C(O)CC43C)C2C1C (stereo not drawn) [Compound 8, 6β-pseudotaraxasterol] has an IC50 of 230 ± 13.5 nM. Work on CC1(C)CC[C@]2(C)CC[C@]3(C)C(=CC=C4[C@]5(C)C(CC[C@]43C)C(C)(C)[C@@H](O)C[C@@H]5O)C2C1 (some centres unmarked) [Compound 3, juglangenin A] yielded an IC50 of 110 ± 22.2 nM. In the case of CC1(C)CC[C@]2(CO)CC[C@]3(C)C(=CCC4[C@@]5(C)C(=O)C[C@@H](O)C(C)(C)C5CC[C@]43C)C2C1 (stereo partly drawn) [Compound 1, 3α, 28-dihydroxy-12-oleanene-l-one], the IC50 is reported as 270 ± 49.9 nM. CC1=CC[C@]2(C)CC[C@]3(C)C(CCC4[C@@]5(C)CCC(=O)C(C)(C)C5CC[C@]43C)C2[C@H]1C (some centres unmarked) [Compound 13, ψ-taraxasterone] showed an IC50 of 260 ± 38.3 nM. C=C(C)[C@@H]1CC[C@]2(CO)CC[C@]3(C)C(CCC4[C@@]5(C)CC[C@H](O)C(C)(C)C5CC[C@]43C)C12 (some centres unmarked) [Compound 15, birch ester alcohol] showed an IC50 of 90 ± 4.5 nM. Compound CC1=CCC2(C)CCC3(C)C(CCC4C5(C)C(O)CC(O)C(C)(C)C5CCC43C)C2C1C (stereo not drawn) [Compound 7, 20-taraxastene-1β, 3β -diol] has an IC50 of 560 ± 33.1 nM. In the case of CC1CCC2(C)CCC3(C)C4CCC5C(C)(C)C(O)CCC5(C)C4(C)CCC3(O)C2C1C (stereo not drawn) [Compound 9, ursan-3β, 13β-diol], the IC50 is reported as 230 ± 30.7 nM.

Same assay, conditions: compared with positive control acarbose
In the case of CC1=CCC2(C)CCC3(C)C(CCC4C5(C)CCC(O)C(C)(C)C5C(O)CC43C)C2C1C (stereo not drawn) [Compound 8, 6β-pseudotaraxasterol], the “α-glycosidase inhibitory activity (in words)” value is reported as “more significant activity than the positive control”. For CC1(C)CC[C@]2(CO)CC[C@]3(C)C(=CCC4[C@@]5(C)C(=O)C[C@@H](O)C(C)(C)C5CC[C@]43C)C2C1 (stereo partly drawn) [Compound 1, 3α, 28-dihydroxy-12-oleanene-l-one], the “α-glycosidase inhibitory activity (in words)” value was “more significant activity than the positive control”. C=C(C)[C@@H]1CC[C@]2(CO)CC[C@]3(C)C(CCC4[C@@]5(C)CC[C@H](O)C(C)(C)C5CC[C@]43C)C12 (some centres unmarked) [Compound 15, birch ester alcohol] was tested, and the “α-glycosidase inhibitory activity (in words)” value was “best activity”. CC1CCC2(C)CCC3(C)C4CCC5C(C)(C)C(O)CCC5(C)C4(C)CCC3(O)C2C1C (stereo not drawn) [Compound 9, ursan-3β, 13β-diol] was tested, and the “α-glycosidase inhibitory activity (in words)” value was “more significant activity than the positive control”.
